Two compounds from patent publication US20230322769A1, “HETEROAROMATIC RING COMPOUND AS RET KINASE INHIBITOR, AND PREPARATION AND USE THEREOF” (JIANGSU CHIA TAI FENGHAI PHARMACEUTICAL CO., LTD., priority 2020, published 2023) can be followed below.

SMILES strings stand for the structures.

Series [1] addresses FGFR3 (Homo sapiens (Human), UniProt P22607). Kind of series: HTRF kinase activity assay, FGFR3. The format is biochemical. The procedure:
(§1) Activity Experiment 8: Inhibition of FGFR Family Kinases' Activity by Prepared Compounds The compounds were assayed for activity IC50 against the FGFR family kinases. Related kinases were purchased from Carna and Signalchem.
(§2) The activity assay method for the related kinases was established by homogeneous time-resolved fluorescence (HTRF), and the inhibitory activity of the compounds was determined. A 5 μL reaction mixture was prepared, comprising 1× enzymatic buffer (Cisbio, HTRF KinEASE™-TK), 5 mM MgCl2, 1 mM DTT, 1 μM TK substrate-biotin (Cisbio, HTRF KinEASE™-TK), corresponding concentrations of ATP and related kinases, and gradient concentrations of compounds.
(§3) The kinases and compounds were pre-incubated for 10 min, and then ATP and substrate were added to start the reaction. All the enzyme-catalyzed reactions were carried out at 25° C. for 40 min. After the enzyme-catalyzed reactions were completed, 5 μL of TK antibody-cryptate and streptavidin-XL665 (the reaction concentration of streptavidin-XL665 was 62.5 nM) were added to the reaction mixtures, and the mixtures were incubated at 25° C. for another 60 min.
Background: Time-resolved FRET reads energy transfer from a long-lived donor to a nearby acceptor.

Series [2] concerns the target FGFR2 (Homo sapiens (Human), UniProt P21802). Put plainly: HTRF kinase activity assay, FGFR2. The format is biochemical. The procedure: (§4) Activity Experiment 8: Inhibition of FGFR Family Kinases' Activity by Prepared Compounds The compounds were assayed for activity IC50 against the FGFR family kinases. Related kinases were purchased from Carna and Signalchem. The activity assay method for the related kinases was established by homogeneous time-resolved fluorescence (HTRF), and the inhibitory activity of the compounds was determined. […] The kinases and compounds were pre-incubated for 10 min, and then ATP and substrate were added to start the reaction. All the enzyme-catalyzed reactions were carried out at 25° C. for 40 min. After the enzyme-catalyzed reactions were completed, 5 μL of TK antibody-cryptate and streptavidin-XL665 (the reaction concentration of streptavidin-XL665 was 62.5 nM) were added to the reaction mixtures, and the mixtures were incubated at 25° C. for another 60 min.

The subject of series [3] is Ba/F3 KIF5B-RET cells. Put plainly: Ba/F3 KIF5B-RET cell inhibition (CellTiter-Glo). The following applies: Mus musculus, BaF3, 72 h. The format is cell-based. The protocol:
(§5) Activity Experiment 3: Inhibition of Ba/F3 KIF5B-RET Cells by Prepared Compounds Ba/F3 KIF5B-RET, Ba/F3KIF5B-RET-V804M, Ba/F3 RET-M918T and Ba/F3 KIF5B-RET-G810R cells growing in log phase were harvested and counted using a […]. The cell viability was determined by the trypan blue exclusion method, and the cell viability was kept over 90%. The cell concentration was adjusted, and 90 μL of the cell suspension was added to a 96-well plate. The cells in the 96-well plate were incubated overnight at 37° C. with 5% CO2 and 95% humidity. Corresponding gradient concentrations of drug solutions (the maximum concentration was 1000 nM) were added to the 96-well plate inoculated with cells at 10 μL/well. Triplicate wells were set per drug concentration, and the final concentration of DMSO was 0.1%. The drug-treated cells in the 96-well plate were incubated for another 72 h at 37° C. with 5% CO2 and 95% humidity. After the drug treatment was completed, 100 μL of CellTiter-Glo reagent was added to each well. The cell plate was shaken on an orbital shaker for 5 min to lyse the cells and then let stand at room temperature for 20 min to stabilize the luminescence signals, and then the luminescence values were read. The data were analyzed using the GraphPad Prism 5.0 software. Dose-response curves were fit to the data using nonlinear S-curve regression, and IC50 was calculated from the curves.
On the technique in general: In ATP-based viability assays light output follows the ATP content of the culture.

In series [4] the target is FGFR1 (Homo sapiens (Human), UniProt P11362). Kind of series: HTRF kinase activity assay, FGFR1. The series is classed as biochemical. The procedure: as §1, §2, §3
Chain of FGFR1 (P11362 22-822): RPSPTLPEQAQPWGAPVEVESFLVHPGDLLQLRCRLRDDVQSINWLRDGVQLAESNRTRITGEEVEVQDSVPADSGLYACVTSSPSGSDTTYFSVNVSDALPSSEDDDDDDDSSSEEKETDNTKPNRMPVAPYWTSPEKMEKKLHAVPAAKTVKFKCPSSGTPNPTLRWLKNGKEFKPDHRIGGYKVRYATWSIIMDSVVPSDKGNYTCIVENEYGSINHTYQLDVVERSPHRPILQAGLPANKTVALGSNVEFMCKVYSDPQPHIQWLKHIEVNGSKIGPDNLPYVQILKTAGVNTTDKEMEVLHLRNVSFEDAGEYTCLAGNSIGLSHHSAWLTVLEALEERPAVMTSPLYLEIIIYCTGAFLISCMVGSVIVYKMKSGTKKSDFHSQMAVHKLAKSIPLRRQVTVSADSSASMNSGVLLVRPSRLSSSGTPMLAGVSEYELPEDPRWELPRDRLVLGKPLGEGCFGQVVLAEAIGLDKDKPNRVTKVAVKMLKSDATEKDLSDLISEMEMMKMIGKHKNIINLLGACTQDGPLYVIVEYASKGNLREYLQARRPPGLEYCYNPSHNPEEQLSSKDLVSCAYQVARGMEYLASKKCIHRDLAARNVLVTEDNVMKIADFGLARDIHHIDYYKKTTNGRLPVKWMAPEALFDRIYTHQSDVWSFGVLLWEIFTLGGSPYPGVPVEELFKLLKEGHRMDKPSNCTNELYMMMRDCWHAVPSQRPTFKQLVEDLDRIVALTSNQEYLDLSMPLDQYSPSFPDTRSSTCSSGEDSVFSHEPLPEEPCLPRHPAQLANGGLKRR
The target in series [5] is FGFR3 K650E (Homo sapiens (Human), UniProt P22607, K650E). Put plainly: HTRF kinase activity assay, FGFR3 K650E. The series is classed as biochemical. The protocol: as §1, §2, §3
Chain of FGFR3 K650E (P22607 23-806 K650E): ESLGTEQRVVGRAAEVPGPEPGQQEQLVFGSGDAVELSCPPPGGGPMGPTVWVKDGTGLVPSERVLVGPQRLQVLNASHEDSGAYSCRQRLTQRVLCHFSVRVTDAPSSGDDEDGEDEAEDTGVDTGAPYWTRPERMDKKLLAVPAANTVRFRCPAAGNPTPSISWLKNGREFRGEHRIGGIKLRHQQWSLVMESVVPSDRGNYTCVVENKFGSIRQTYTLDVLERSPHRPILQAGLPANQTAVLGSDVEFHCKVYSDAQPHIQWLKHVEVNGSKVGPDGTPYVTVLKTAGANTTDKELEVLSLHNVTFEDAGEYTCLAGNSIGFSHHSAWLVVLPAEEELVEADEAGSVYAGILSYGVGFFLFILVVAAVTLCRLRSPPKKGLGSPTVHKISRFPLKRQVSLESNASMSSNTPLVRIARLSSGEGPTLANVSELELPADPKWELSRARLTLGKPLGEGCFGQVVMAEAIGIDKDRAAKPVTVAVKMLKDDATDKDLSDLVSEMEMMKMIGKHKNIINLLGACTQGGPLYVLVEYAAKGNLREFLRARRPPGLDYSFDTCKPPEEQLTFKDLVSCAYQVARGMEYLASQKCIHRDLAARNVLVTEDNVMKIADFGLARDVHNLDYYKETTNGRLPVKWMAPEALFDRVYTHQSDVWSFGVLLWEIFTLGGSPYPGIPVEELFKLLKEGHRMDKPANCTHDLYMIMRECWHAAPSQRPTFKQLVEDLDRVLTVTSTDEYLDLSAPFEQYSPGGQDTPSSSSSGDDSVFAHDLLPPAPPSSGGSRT
The test system of series [6] is Ba/F3 RET-M918T cells. Kind of series: Ba/F3 RET-M918T cell inhibition (CellTiter-Glo). The following applies: Mus musculus, BaF3, 72 h. The series is classed as cell-based. The protocol: as §5
Series [7] concerns the target FGFR2 N549H (Homo sapiens (Human), UniProt P21802, N549H). Put plainly: HTRF kinase activity assay, FGFR2 N549H. The format is biochemical. The procedure:
as §4

In series [8] the target is KDR (VEGFR2) (Homo sapiens (Human), UniProt P35968). Kind of series: HTRF kinase activity assay, KDR. The series is classed as biochemical. The conditions noted are these: 20 μM ATP.
Chain of KDR (VEGFR2) (P35968 20-1356): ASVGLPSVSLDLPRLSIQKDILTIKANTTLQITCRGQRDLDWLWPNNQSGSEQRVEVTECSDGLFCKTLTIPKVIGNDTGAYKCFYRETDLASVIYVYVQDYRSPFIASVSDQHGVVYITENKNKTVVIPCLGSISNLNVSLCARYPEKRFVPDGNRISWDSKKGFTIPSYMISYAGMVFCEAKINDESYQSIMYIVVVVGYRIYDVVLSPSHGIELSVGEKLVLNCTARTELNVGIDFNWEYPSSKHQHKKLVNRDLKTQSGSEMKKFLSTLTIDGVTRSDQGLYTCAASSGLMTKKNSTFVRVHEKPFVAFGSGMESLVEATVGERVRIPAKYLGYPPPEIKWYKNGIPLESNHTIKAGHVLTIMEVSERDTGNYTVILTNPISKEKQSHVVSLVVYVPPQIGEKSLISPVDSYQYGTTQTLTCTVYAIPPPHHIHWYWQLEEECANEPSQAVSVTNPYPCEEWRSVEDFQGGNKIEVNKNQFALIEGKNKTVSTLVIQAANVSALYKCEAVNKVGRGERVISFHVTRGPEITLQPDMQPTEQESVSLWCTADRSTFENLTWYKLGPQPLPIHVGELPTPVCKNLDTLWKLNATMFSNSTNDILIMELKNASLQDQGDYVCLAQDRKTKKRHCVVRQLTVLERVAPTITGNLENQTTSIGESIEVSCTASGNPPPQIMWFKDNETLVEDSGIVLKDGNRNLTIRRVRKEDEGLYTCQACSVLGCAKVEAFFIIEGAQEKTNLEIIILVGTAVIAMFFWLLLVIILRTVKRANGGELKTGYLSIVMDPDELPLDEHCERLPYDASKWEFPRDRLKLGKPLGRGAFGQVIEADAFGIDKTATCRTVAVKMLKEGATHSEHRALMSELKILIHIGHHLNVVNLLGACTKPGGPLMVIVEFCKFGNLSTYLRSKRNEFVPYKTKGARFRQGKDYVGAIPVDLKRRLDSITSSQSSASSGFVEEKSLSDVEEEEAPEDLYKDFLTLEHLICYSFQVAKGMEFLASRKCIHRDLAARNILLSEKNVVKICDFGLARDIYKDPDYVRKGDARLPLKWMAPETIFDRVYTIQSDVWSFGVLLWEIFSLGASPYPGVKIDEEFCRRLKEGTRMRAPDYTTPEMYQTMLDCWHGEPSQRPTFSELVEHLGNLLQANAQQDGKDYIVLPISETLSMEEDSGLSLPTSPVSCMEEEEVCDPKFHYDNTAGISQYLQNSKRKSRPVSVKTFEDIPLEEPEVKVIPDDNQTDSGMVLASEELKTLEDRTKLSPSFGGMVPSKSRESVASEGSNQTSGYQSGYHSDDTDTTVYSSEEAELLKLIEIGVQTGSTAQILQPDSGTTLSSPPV
In series [9] the target is RET wild type (RET WT) (Homo sapiens (Human), UniProt P07949). Put plainly: HTRF kinase activity assay, RET wild type. The series is classed as biochemical. The following applies: 1 μM ATP.
The target of series [10] is hERG potassium channel (Homo sapiens (Human), UniProt Q12809). Put plainly: Inhibition of hERG potassium channel, whole-cell patch clamp in HEK293 cells. The following applies: read-out: IC50 for inhibition of hERG potassium channel; HEK293 cells stably expressing hERG, patch clamp. (The hERG channel carries a current that helps repolarise heart muscle cells.)
Chain of hERG potassium channel (Q12809 whole entry): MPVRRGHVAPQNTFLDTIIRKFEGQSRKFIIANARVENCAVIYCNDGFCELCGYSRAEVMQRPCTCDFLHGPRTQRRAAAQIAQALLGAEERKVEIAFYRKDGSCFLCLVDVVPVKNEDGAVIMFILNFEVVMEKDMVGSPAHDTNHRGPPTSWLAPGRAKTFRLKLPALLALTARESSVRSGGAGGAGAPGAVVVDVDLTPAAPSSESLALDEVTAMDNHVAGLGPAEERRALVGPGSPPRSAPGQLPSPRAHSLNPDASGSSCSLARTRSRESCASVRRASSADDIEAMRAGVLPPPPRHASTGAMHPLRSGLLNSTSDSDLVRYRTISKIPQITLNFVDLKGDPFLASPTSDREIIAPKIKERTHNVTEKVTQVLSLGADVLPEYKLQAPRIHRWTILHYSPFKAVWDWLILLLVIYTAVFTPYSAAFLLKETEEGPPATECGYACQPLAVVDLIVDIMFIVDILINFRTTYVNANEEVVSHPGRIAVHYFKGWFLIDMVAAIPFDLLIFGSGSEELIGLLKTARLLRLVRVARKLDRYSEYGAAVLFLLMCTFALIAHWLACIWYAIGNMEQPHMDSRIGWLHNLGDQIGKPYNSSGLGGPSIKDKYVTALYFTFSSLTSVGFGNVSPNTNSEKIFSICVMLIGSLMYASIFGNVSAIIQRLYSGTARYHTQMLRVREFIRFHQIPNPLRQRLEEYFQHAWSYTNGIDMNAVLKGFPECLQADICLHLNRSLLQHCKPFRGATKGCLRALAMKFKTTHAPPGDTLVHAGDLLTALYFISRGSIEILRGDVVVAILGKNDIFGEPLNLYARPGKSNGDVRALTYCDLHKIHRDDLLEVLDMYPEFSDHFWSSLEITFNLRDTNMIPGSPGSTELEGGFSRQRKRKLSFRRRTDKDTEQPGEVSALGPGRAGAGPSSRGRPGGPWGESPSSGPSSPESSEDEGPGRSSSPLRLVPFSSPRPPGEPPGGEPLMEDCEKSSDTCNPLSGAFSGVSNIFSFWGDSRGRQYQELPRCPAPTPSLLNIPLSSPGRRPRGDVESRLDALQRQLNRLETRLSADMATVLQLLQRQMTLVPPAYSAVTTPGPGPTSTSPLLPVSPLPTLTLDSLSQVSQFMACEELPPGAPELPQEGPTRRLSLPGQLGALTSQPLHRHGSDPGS

A word on the IC50: it is the concentration needed to halve the response being measured.

Chain of FGFR2 (P21802 22-821): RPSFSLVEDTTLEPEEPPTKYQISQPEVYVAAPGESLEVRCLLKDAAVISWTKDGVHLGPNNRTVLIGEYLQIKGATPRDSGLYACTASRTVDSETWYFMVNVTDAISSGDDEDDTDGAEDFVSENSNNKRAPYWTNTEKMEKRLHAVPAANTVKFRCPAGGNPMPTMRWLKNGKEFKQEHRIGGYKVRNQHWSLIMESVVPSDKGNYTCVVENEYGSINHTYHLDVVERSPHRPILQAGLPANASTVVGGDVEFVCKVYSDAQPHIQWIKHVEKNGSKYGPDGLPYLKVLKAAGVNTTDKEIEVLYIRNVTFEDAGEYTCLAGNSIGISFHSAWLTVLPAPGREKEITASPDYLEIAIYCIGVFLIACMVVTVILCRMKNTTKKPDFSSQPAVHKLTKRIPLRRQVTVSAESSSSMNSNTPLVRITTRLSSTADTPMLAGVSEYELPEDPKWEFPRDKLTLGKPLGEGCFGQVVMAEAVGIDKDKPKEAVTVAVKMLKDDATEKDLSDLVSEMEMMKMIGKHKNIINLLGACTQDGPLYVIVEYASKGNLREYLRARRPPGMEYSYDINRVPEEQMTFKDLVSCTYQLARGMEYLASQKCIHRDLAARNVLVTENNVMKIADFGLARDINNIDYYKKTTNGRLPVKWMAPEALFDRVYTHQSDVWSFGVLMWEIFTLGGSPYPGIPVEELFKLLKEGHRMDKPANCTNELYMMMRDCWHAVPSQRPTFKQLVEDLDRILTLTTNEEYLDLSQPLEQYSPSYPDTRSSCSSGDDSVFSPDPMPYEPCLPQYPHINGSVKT
Chain of FGFR2 N549H (P21802 22-821 N549H): as the sequence (P21802 22-821) above, with N528H counted along it
Chain of FGFR3 (P22607 23-806): as the sequence (P22607 23-806 K650E) above, with E628K counted along it

Regarding `[2H]C([2H])([2H])N1CCN(c2cc(-c3ccc(N4CC5CC(C4)N5Cc4ccc(OC)nc4)nc3)c3c(C#N)cnn3c2)CC1` [Compound 94], the IC50 was found to be 0.309 µM in [1]; 0.0265 µM in [2]; 0.0198 µM in series [3]; 0.301 µM in series [4]; 0.0365 µM in series [5]; 0.0171 µM in series [6]. For the same compound, the IC50 in [7] was 0.00219 µM; in series [8], 0.169 µM; in [9] it was 0.00462 µM.

`COc1ccc(CN2C3CC2CN(c2ccc(-c4cc(OCC(C)(C)O)cn5ncc(C#N)c45)cn2)C3)cn1` [Selpercatinib, selpercatinib, reference compound]: the concentration for half-maximal inhibition (IC50) in [1] was 0.349 µM; in series [10], 2.75 µM; in [2] it was 0.0206 µM; in [3], 0.00834 µM; in series [4], 0.304 µM; in [5] it was 0.0459 µM. Also, the results for the concentration for half-maximal inhibition (IC50) in series [6] and in [7] were 0.0204 µM and 0.00926 µM, respectively.
